For one data set, the target named is T1, CYP2C9 (Homo sapiens, UniProt P11712).
T1 construct: Mixed human liver microsomes (HLM) were purchased from Corning Inc; tissue Corning Inc. or XenoTech, LLC. or other suppliers; host or cells: pooled human liver microsomes
Briefly: Human liver microsomal CYP inhibition experiment, CYP2C9. Type of data set: in vitro ADME. The protocol: (§1) Experiment Embodiment 4: Human Liver Microsomal CYP Inhibition Experiment
(§2) The inhibitory effects of the test compound 3A and VK5211 on the activities of human liver microsomal cytochrome P450 isozymes (CYP1A2, CYP2C9, CYP2C19, CYP2D6 and CYP3A4) were determined.
(§3) Mixed human liver microsomes (HLM) were purchased from Corning Inc. (Steuben, New York, USA) or XenoTech, LLC. (Lenexa, Kans., USA) or other suppliers, and were stored at a temperature below −60° C. before use.
(§4) First, the test compound (10.0 mM) was gradient diluted to prepare working solution (100×final concentration), and the concentrations of the working solution were: 5.00, 1.50, 0.500, 0.150, 0.0500, 0.0150, 0.00500 mM, and a working solution of each positive inhibitor of P450 isozymes (CYP1A2, CYP2C9, CYP2C19, CYP2D6, and CYP3A4) and a specific substrate mixture thereof (5 in 1) were prepared at the same time; human liver microsomes stored in a refrigerator at a temperature lower than −60° C. were put on ice to thaw, and when all the human liver microsomes were dissolved, the microsomes were diluted with potassium phosphate buffer (PB) to prepare a working solution of a certain concentration (0.253 mg/mL). […] The concentration of metabolites produced by the probe substrate in the sample was determined by liquid chromatography-tandem mass spectrometry (LC-MS/MS) method. […]

Another data set concerns the target T2, CYP1A2 (Homo sapiens, UniProt P05177).
T2 construct: Mixed human liver microsomes (HLM) were purchased from Corning Inc; tissue Corning Inc. or XenoTech, LLC. or other suppliers; host or cells: pooled human liver microsomes
T2 sequence (P05177 1-516): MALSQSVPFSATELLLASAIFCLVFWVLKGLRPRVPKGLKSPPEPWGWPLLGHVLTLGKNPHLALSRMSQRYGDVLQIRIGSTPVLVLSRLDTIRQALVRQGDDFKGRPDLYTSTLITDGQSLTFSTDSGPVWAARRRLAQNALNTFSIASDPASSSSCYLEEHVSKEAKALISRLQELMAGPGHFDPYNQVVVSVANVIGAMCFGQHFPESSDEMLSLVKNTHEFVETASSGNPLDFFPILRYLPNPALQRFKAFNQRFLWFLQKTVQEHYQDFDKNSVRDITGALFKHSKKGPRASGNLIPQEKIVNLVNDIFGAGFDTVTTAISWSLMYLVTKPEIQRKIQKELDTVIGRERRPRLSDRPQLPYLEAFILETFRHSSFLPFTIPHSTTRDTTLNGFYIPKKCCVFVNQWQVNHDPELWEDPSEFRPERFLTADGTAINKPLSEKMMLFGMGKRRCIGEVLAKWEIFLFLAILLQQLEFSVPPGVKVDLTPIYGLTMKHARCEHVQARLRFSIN
The data set is described as follows: Human liver microsomal CYP inhibition experiment, CYP1A2. Type of data set: in vitro ADME. The protocol: as §1, §2, §3, §4
For orientation: Liver microsomes are vesicles of endoplasmic reticulum, rich in cytochrome P450 enzymes.

The nature of data set [1]: Pharmacokinetic test in male SD rats, intravenous and intragastric administration, plasma LC-MS/MS. Type of data set: in vivo. The settings on record: rat; for AUC(0-t): read-out: Curve area (0-t) AUC0-last; for half-life: read-out: Half-life T1/2 (converted). The source says:
Experimental Embodiment 2: Pharmacokinetic Test of the Compounds of the Present Disclosure
Male SD rats were used as test animals, and LC-MS/MS method was used to determine the drug concentrations in plasma of rats at different time after intravenous and intragastric administration of compound 1A, compound 3A and compound 8A. To study the pharmacokinetic behavior of the compounds in rats and to evaluate their pharmacokinetic characteristics.
2.1 Test Drugs: Compound 1A, Compound 3A and Compound 8A
2.2 Test animals: 12 healthy adult male SD rats, divided into 6 groups with 2 rats in each group. The animal was purchased from Shanghai Sippr-BK laboratory animal Co. Ltd., and the animal production license number was SOCK (Shanghai) 2013-0016.
An appropriate amount of sample was weighed, and appropriate amounts of DMSO, polyethylene glycol-15 hydroxystearate and water were added in turn according to the volume ratio of 10:10:80, and the clarified state of 0.2 mg/mL was reached after stirring and sonication for intravenous administration.
An appropriate amount of sample was weighed and dissolved in 5% Tween 80+90% polyethylene glycol 400+5% polyvinylpyrrolidone K30 solution, and the clarified state of 0.5 mg/mL was reached after stirring and sonication for intragastric administration.
12 male SD rats were divided into 6 groups, and after fasting overnight, groups 1-3 were administered intravenously with a volume of 5 mL/kg; groups 4-6 were administered by gavage with a volume of 10 mL/kg.
After compound 1A, compound 3A and compound 8A were intravenously administered to SD rats, 40 μL of blood was collected at 0.0833, 0.25, 0.5, 1, 2, 4, 8 and 24 hours, respectively, and placed in a test tube containing 2 μL of EDTA-K2. After compound 1A and compound 3A were administered by gavage, 40 μL of blood was collected at 0.25, 0.5, 1, 2, 4, 8 and 24 hours, respectively, and placed in a test tube containing 2 μL of EDTA-K2. The tubes were centrifuged at 4000 rpm for 15 minutes to separate the plasma and stored at −60° C. Animals were allowed to eat 2 hours after administration.
The content of the test compounds in the plasma of rats after intravenous and intragastric administration was determined by LC-MS/MS method. The linear range of the method was 2.00-6000 nmol/L; plasma samples were analyzed after acetonitrile precipitation protein treatment.

The mark [2] stands for this setting: intravenous administration, dose 1.1 (1A), 0.69 (3A), 0.716 (8A) mg/kg.
Setting [3] is: po, intragastric administration, dose 4.92 (1A), 4.2 (3A), 4.59 (8A) mg/kg.

Read-outs that look alike come from different tables or passages of the source.

T1 sequence (P11712 whole entry): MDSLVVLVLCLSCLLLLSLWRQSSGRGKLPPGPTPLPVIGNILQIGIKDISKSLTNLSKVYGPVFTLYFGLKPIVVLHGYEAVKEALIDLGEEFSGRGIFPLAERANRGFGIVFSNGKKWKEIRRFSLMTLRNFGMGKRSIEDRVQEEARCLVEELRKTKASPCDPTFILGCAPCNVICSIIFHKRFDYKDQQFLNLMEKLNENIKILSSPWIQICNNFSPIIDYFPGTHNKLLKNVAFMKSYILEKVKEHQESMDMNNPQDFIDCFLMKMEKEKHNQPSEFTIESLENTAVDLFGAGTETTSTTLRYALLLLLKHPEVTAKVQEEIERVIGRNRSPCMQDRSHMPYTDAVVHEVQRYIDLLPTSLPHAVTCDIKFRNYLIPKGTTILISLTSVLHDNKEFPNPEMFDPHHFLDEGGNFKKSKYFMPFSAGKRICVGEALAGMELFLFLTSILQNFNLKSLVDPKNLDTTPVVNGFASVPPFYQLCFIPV

As usually defined, the IC50 is the point on the concentration scale where inhibition reaches its midpoint. By clearance is commonly meant the volume of plasma or blood freed of the substance per unit of time. A word on the bioavailability: it is the share of a dose that reaches the circulation, judged against a reference dose that is usually intravenous. The term Tmax denotes the time from dosing to the highest level. Take `N#Cc1ccc(N2CC3CC3C2C(O)C(F)(F)F)cc1Cl` (single isomer, unassigned) [Compound 3A]: the IC50 at CYP2C9 was more than 50 µM; on CYP1A2, 29.3 µM. Also, in data set [1] (intravenous administration, dose 1.1 (1A), 0.69 (3A), 0.716 (8A) mg/kg, read-out: Apparent volume of distribution Vdss), the Vd was determined as 1.83 L/kg. Moreover, the clearance in data set [1] (intravenous administration, dose 1.1 (1A), 0.69 (3A), 0.716 (8A) mg/kg, read-out: Clearance rate Cl) was determined as 28.6 mL/min/kg. In addition, the AUC(0-inf) in data set [1] (intravenous administration, dose 1.1 (1A), 0.69 (3A), 0.716 (8A) mg/kg, read-out: Curve area (0-inf) AUC0-inf) is 1.29 µM·h. In addition, the AUC(0-t) in data set [1] (setting [2]) was determined as 1.28 µM·h; in data set [1] (setting [3]) it was 1.25 µM·h. Also, the half-life in data set [1] (setting [2]) is 1.35 h; in data set [1] (setting [3]), 1.8 h. The bioavailability in data set [1] (oral, intragastric vs intravenous administration, read-out: Bioavailability F) was 16%. Besides, the Cmax in data set [1] (po, intragastric administration, dose 4.92 (1A), 4.2 (3A), 4.59 (8A) mg/kg, read-out: Blood drug concentration Cmax) turned out to be 262 nM. The time to peak (Tmax) in data set [1] (po, intragastric administration, dose 4.92 (1A), 4.2 (3A), 4.59 (8A) mg/kg, read-out: Peak time Tmax) came out at 3 h.

These data come from US20230012570A1, “BICYCLIC COMPOUND USED AS SELECTIVE ANDROGEN RECEPTOR MODULATOR” (MEDSHINE DISCOVERY INC., priority 2019, published 2023).
